Data set [1] deals with Phytophthora infestans. As to the kind of experiment: whole plant or invertebrate. It is filed as in vivo. Conditions: 24 h, read-out: PHYTIN percent control.
In data set [2] the test system is Plasmopara viticola. The experiment in a line: whole plant or invertebrate. Format: in vivo. Particulars: 24 h, read-out: PLASVI percent control.
Data set [3] has as its system Septoria tritici. As to the kind of experiment: Leaf Blotch of Wheat, 1-day protectant whole plant test. Format: in vivo. Conditions: Zymoseptoria tritici, 24 h, read-out: SEPTTR percent control.

What is called melting point is the temperature, or range, at which the solid turns liquid.

Like-named read-outs stand apart in the source and are kept apart here. Some results are limits rather than exact numbers.

`CC(C)OC(=O)N[C@H](CS(=O)(=O)C(C)c1ccc(C#N)cc1)C(C)C` (some centres unmarked) [Compound 2] returned a melting point of 110 to 120 °C. Moreover, the pest or weed control at 100 ppm in data set [1] was in the range of 90 to 100%. For the same compound, in data set [2], the pest or weed control at 100 ppm is 90 to 100%. Further, the pest or weed control at 100 ppm in data set [3] (100 ppm spray, wheat plants (variety Monon), one-day protectant test, vs untreated inoculated plants) was under 20%.
The compound `CC(C)[C@@H](CS(=O)(=O)C(C)c1ccc(Br)cc1)NC(=O)Oc1ccccc1` (some centres unmarked) [Compound 17] yielded a melting point of 55 to 65 °C. Further, in data set [1], the pest or weed control at 100 ppm was 90 to 100%. Further, the pest or weed control at 100 ppm in data set [2] fell in the range of 90 to 100%. Further, the pest or weed control at 100 ppm in data set [3] is 20 to 49%.

These data come from US6815556B2, “Compounds having fungicidal activity and processes to make and use same” (Dow AgroSciences LLC, priority 2000, dated 2004).
